Patent publication US20110160053A1, “Synergistic Combination of Prothioconazole and Metominostrobin” (Bayer CropScience AG, priority 2009, published 2011)

Tests used:
Type in all cases: in vivo
[1] = test system: Blumeria graminis fsp. tritici; assay: Blumeria test (wheat) / preventive; settings: rate of application 62.5 ppm, evaluated 7 days after inoculation
Procedure: [table] To produce a suitable preparation of active compound, 1 part by weight of active compound or active compound combination is mixed with the stated amounts of solvent and emulsifier, and the concentrate is diluted with water to the desired concentration. To test for preventive activity, young plants are sprayed with the preparation of active compound or active compound combination at the stated rate of application. After the spray coating has been dried, the plants are dusted with spores of Blumeria graminis fsp. tritici. The plants are placed in the greenhouse at a temperature of approximately 18° C. and a relative atmospheric humidity of approximately 80% to promote the development of mildew pustules. The test is evaluated 7 days after the inoculation. 0% means an efficacy which corresponds to that of the control, while an efficacy of 100% means that no disease is observed.

[2] = test system: Phakopsora pachyrhizi; assay: Phakopsora test (soybeans) / protective; settings: evaluated 11 days after inoculation
Procedure: To produce a suitable preparation of active compound, 1 part by weight of active compound or active compound combination is mixed with the stated amounts of solvent and emulsifier, and the concentrate is diluted with water to the desired concentration.
To test for protective activity, young plants are sprayed with the preparation of active compound or active compound combination at the stated rate of application. After the spray coating has dried on, the plants are placed in a greenhouse at a temperature of approximately 23° C. and a relative atmospheric humidity of approximately 70%.
1 day after spraying, the plants are inoculated with an aqueous spore suspension of the causal agent of soybean rust (Phakopsora pachyrhizi). The plants are then placed in a greenhouse at approximately 20° C. and a relative atmospheric humidity of approximately 80%. The test is evaluated 11 days after the inoculation. 0% means an efficacy which corresponds to that of the control, while an efficacy of 100% means that no disease is observed.

[3] = test system: Sphaerotheca fuliginea; assay: Sphaerotheca test (cucumbers) / protective; settings: rate of application 2 ppm, evaluated 7 days after inoculation
Procedure: [table] To produce a suitable preparation of active compound, 1 part by weight of active compound is mixed with the stated amounts of solvent and emulsifier, and the concentrate is diluted with water to the desired concentration. To test for protect activity, young plants are sprayed with the preparation of active compound at the stated rate of application. After the spray coating has dried on, the plants are inoculated with an aqueous spore suspension of Sphaerotheca fuliginea. The plants are then placed in a greenhouse at approximately 23° C. and a relative atmospheric humidity of approximately 70%. The test is evaluated 7 days after the inoculation. 0% means an efficacy which corresponds to that of the control, while an efficacy of 100% means that no disease is observed.

Structure (SMILES) | Efficacy in % [1] [%] | Efficacy in % ([2]; rate of application 0.1 ppm) [%] | Efficacy in % ([2]; rate of application 0.5 ppm) [%] | Efficacy in % [3] [%] | Efficacy in % ([2]; rate of application 2.5 ppm) [%] | Efficacy in % ([2]; rate of application 5 ppm) [%]
OC(Cc1ccccc1Cl)(Cn1nc[nH]c1=S)C1(Cl)CC1 (centres unmarked) [Prothioconazole, 2-[2-(1-chlorocyclopropyl)-3-(2-chlorophenyl)-2-hydroxypropyl]-2,4-dihydro-[1,2,4]-triazole-3-thione] | 13 | 20 | 50 | 65 | – | –
CNC(=O)/C(=N/OC)c1ccccc1Oc1ccccc1 [Metominostrobin, (E)-α-(methoxyimino)-N-methyl-2-phenoxy-benzeneacetamide] | 50 | – | – | 0 | 0 | 20
